Consider 29 molecules from patent US20240174690A1, “ANNULATED 2-AMINO-3-CYANO THIOPHENES AND DERIVATIVES FOR THE TREATMENT OF CANCER” (BOEHRINGER INGELHEIM INTERNATIONAL GMBH, priority 2021, published 2024).

Some results are limits rather than exact numbers.

The target of one data set is KRAS (G12C)::SOS1 (Homo sapiens (Human), UniProt P01116, C118S/C51S/C80L/G12C). Nature of the data set: KRAS::SOS1 AlphaScreen binding assay, KRAS G12C. In outline:
(§1)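 AlphaScreen measurement of compound disruption of biotinylated, GDP-loaded KRAS 1-169 (10 nM; G12C 7.5 nM) binding to GST-SOS1 564-1049 (5 nM with G12D/G12C, 10 nM otherwise), with 10 μM GDP in PBS/0.1% BSA/0.05% Tween 20. Timing was 30 min compound preincubation, then 60 min with beads at room temperature; top concentration 100 μM, 4-parameter IC50.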

A further data set concerns the target KRAS (G12D)::SOS1 (Homo sapiens (Human), UniProt P01116, G12D). Nature of the data set: KRAS::SOS1 AlphaScreen binding assay, KRAS G12D. In short, it runs like this:
as §1

Data set [1] can be described thus: Metabolic (microsomal) stability assay, human liver microsomes (HLM). The note with it: predicted clearance as percent of liver blood flow, 1 μM. Format: in vitro ADME. In outline:
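LC-MS/MS tracked parent disappearance at 0, 5, 15, 30 and 60 min in NADPH-initiated incubations with 1 mg/mL human microsomal protein and 1 μM compound at 37°C, pH 7.5. First-order fits gave intrinsic clearance, which was scaled up and reported as % QH. NADPH-free controls were also run.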

Chain of KRAS (G12D)::SOS1 (P01116 other isoform, or with tags, fused parts or gaps G12D): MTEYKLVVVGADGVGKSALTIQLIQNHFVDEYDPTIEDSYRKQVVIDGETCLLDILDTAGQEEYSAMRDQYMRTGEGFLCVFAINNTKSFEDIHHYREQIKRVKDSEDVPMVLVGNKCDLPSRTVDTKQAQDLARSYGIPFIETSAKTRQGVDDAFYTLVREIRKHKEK
Chain of KRAS (G12C)::SOS1 (P01116 other isoform, or with tags, fused parts or gaps G12C/C51S/C80L/C118S): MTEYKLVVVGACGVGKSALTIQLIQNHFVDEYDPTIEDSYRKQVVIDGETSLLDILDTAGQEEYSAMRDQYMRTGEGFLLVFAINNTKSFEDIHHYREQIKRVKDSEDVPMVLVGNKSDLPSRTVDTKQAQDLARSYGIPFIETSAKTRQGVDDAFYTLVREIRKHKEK

`C[C@H](Oc1cc(Cl)nc(-c2onc3c2CCC[C@@]32CCCc3sc(N)c(C#N)c32)n1)[C@@H]1CCCN1C` [I-1]: the results for the IC50 on KRAS (G12C)::SOS1 and at KRAS (G12D)::SOS1 were 2 nM and 3 nM, respectively. Further, in data set [1], the “HLM QH” value is 79%.
Taken in the same sequence, the figures for `C[C@H](Oc1nc(-c2onc3c2CCC[C@@]32CCCc3sc(N)c(C#N)c32)cc(N2CCNC3(CC3)C2)n1)[C@@H]1CCCN1C` [I-2] were 45 nM, 2 nM and 44%.
On to `C[C@H](Oc1cc(N2CCNC3(CCC3)C2)nc(-c2onc3c2CCC[C@@]32CCCc3sc(N)c(C#N)c32)n1)[C@@H]1CCCN1C` [I-3], for which the results for the IC50 at KRAS (G12C)::SOS1 and at KRAS (G12D)::SOS1 were 3 nM and 1 nM, respectively. Also, in data set [1], the “HLM QH” value was <24%.
For `C[C@H](Oc1cc(N2CCNC3(COC3)C2)nc(-c2onc3c2CCC[C@@]32CCCc3sc(N)c(C#N)c32)n1)[C@@H]1CCCN1C` [I-4], the values for the IC50 on KRAS (G12C)::SOS1 and on KRAS (G12D)::SOS1 were 2 nM and 1 nM, respectively. Further, the “HLM QH” value in data set [1] is recorded as <24%.
Take `C[C@H](Oc1cc(-n2ccnc2)nc(-c2onc3c2CCC[C@@]32CCCc3sc(N)c(C#N)c32)n1)[C@@H]1CCCN1C` [I-20]: the IC50 on KRAS (G12C)::SOS1 and at KRAS (G12D)::SOS1 was 2 nM each time. Also, the “HLM QH” value in data set [1] is recorded as 30%.
For the molecule `C[C@H](Oc1cc(-c2ccn(C)n2)nc(-c2onc3c2CCC[C@@]32CCCc3sc(N)c(C#N)c32)n1)[C@@H]1CCCN1C` [I-21], the IC50 on KRAS (G12C)::SOS1 turned out to be 2 nM; on KRAS (G12D)::SOS1 it was 4 nM. Further, in data set [1], the “HLM QH” value is 44%.
Taken in the same sequence, the figures for `C[C@H](Oc1cc([C@@H]2CCOC2)nc(-c2onc3c2CCC[C@@]32CCCc3sc(N)c(C#N)c32)n1)[C@@H]1CCCN1C` [I-22] were 2 nM, 1 nM and 37%.
For `CO[C@@H]1C[C@@H]([C@H](C)Oc2cc(-c3ccn(C)n3)nc(-c3onc4c3CCC[C@@]43CCCc4sc(N)c(C#N)c43)n2)N(C)C1` [I-23] the same measures were 3 nM, 7 nM and 45%.
Take `Cc1nc(-c2cc(O[C@@H](C)[C@@H]3CCCN3C)nc(-c3onc4c3CCC[C@@]43CCCc4sc(N)c(C#N)c43)n2)cs1` [I-24]: the IC50 at KRAS (G12C)::SOS1 and at KRAS (G12D)::SOS1 was 2 nM each time. For the same molecule, in data set [1], the “HLM QH” value is given as <24%.
For `C[C@H](Oc1cc(-c2ccc(N)nc2)nc(-c2onc3c2CCC[C@@]32CCCc3sc(N)c(C#N)c32)n1)[C@@H]1CCCN1C` [I-25], the IC50 at KRAS (G12C)::SOS1 came out at 2 nM; at KRAS (G12D)::SOS1, 5 nM. For the same molecule, the “HLM QH” value in data set [1] is on record as <24%.
Taken in the same sequence, the figures for `C[C@H](Oc1cc(-c2ccn(CC(C)(C)O)n2)nc(-c2onc3c2CCC[C@@]32CCCc3sc(N)c(C#N)c32)n1)[C@@H]1CCCN1C` [I-26] were 2 nM, 3 nM and <24%.
Taken in the same sequence, the figures for `C[C@H](Oc1cc(-c2cnsc2)nc(-c2onc3c2CCC[C@@]32CCCc3sc(N)c(C#N)c32)n1)[C@@H]1CCCN1C` [I-27] were 2 nM, 3 nM and <24%.
For `Cc1ccc(-c2cc(O[C@@H](C)[C@@H]3CCCN3C)nc(-c3onc4c3CCC[C@@]43CCCc4sc(N)c(C#N)c43)n2)cn1` [I-28] the same measures were 3 nM, 10 nM and <24%.
Turning to `C[C@H](Oc1cc(-n2nccn2)nc(-c2onc3c2CCC[C@@]32CCCc3sc(N)c(C#N)c32)n1)[C@@H]1CCCN1C` [I-29], the results for the IC50 at KRAS (G12C)::SOS1 and on KRAS (G12D)::SOS1 were 3 nM and 6 nM, respectively. For the same molecule, in data set [1], the “HLM QH” value was 27%.
For `C[C@H](Oc1cc(-c2ccn(C[C@@H](C)O)n2)nc(-c2onc3c2CCC[C@@]32CCCc3sc(N)c(C#N)c32)n1)[C@@H]1CCCN1C` [I-30] the same measures were 2 nM, 2 nM and <24%.
For `C[C@H](O)Cn1ccc(-c2cc(O[C@@H](C)[C@@H]3CCCN3C)nc(-c3onc4c3CCC[C@@]43CCCc4sc(N)c(C#N)c43)n2)n1` [I-31] the same measures were 2 nM, 3 nM and <24%.
For `C[C@H](Oc1cc(-n2ccnn2)nc(-c2onc3c2CCC[C@@]32CCCc3sc(N)c(C#N)c32)n1)[C@@H]1CCCN1C` [I-32] the same measures were 2 nM, 2 nM and 45%.
For the molecule `C[C@H](Oc1cc(-c2ccn3ncnc3c2)nc(-c2onc3c2CCC[C@@]32CCCc3sc(N)c(C#N)c32)n1)[C@@H]1CCCN1C` [I-33], the IC50 on KRAS (G12C)::SOS1 stood at 2 nM; on KRAS (G12D)::SOS1, 6 nM. Besides, the “HLM QH” value in data set [1] is <24%.
For `C[C@H](Oc1cc(-c2ccn(C3COC3)n2)nc(-c2onc3c2CCC[C@@]32CCCc3sc(N)c(C#N)c32)n1)[C@@H]1CCCN1C` [I-34] the same measures were 2 nM, 4 nM and <24%.
Taken in the same sequence, the figures for `C[C@H](Oc1cc(N2CCN(C)C3(COC3)C2)nc(-c2onc3c2CCC[C@@]32CCCc3sc(N)c(C#N)c32)n1)[C@@H]1C[C@@H](F)CN1C` [I-37] were 2 nM, 1 nM and 51%.
Taken in the same sequence, the figures for `C[C@H](Oc1cc(N2CCN(C)C3(CC3)C2)nc(-c2onc3c2CCC[C@@]32CCCc3sc(N)c(C#N)c32)n1)[C@@H]1C[C@@H](F)CN1C` [I-39] were 10 nM, 1 nM and 39%.
Consider `C[C@H](Oc1nc(-c2onc3c2CCC[C@@]32CCCc3sc(N)c(C#N)c32)cc(N2CCN(C)C3(CC3)C2)n1)[C@@H]1CCCN1C` [I-40], for which the IC50 at KRAS (G12C)::SOS1 amounted to 88 nM; at KRAS (G12D)::SOS1, 6 nM. Further, the “HLM QH” value in data set [1] is given as 42%.
As for `C[C@H](Oc1cc(N2CCN(C)C3(CC3)C2)nc(-c2onc3c2CCC[C@@]32CCCc3sc(N)c(C#N)c32)n1)[C@@H]1CCCN1C` [I-41], the IC50 at KRAS (G12C)::SOS1 was determined as 6 nM; on KRAS (G12D)::SOS1, 1 nM. The “HLM QH” value in data set [1] was <24%.
Taken in the same sequence, the figures for `C[C@H]1CN(C)CCCN1c1nc(-c2onc3c2CCC[C@@]32CCCc3sc(N)c(C#N)c32)cc(N2CCN(C)C3(CC3)C2)n1` [I-42] were 606 nM, 35 nM and 42%.
Regarding `C[C@H](Oc1cc(-n2ccc(C(=O)N[C@H]3CCOC3)n2)nc(-c2onc3c2CCC[C@@]32CCCc3sc(N)c(C#N)c32)n1)[C@@H]1CCCN1C` [I-57], the concentration for half-maximal inhibition (IC50) at KRAS (G12C)::SOS1 and on KRAS (G12D)::SOS1 was 2 nM throughout.
For the molecule `C[C@H](Oc1cc(N2CCNCC2)nc(-c2noc3c2CCC[C@@]32CCCc3sc(N)c(C#N)c32)n1)[C@@H]1CCCN1C` [II-45], the IC50 came out at 3 nM at KRAS (G12C)::SOS1 and 1 nM at KRAS (G12D)::SOS1.
As for `C[C@H](Oc1cc(-n2ccsc2=O)nc(-c2noc3c2CCC[C@@]32CCCc3sc(N)c(C#N)c32)n1)[C@@H]1CCCN1C` [II-135], in data set [1], the “HLM QH” value is 54%.
At KRAS (G12C)::SOS1, `[2H]C([2H])([2H])N1C[C@H](F)C[C@H]1[C@H](C)Oc1cc(N2CCNC3(CC3)C2)nc(-c2noc3c2CCC[C@@]32CCCc3sc(N)c(C#N)c32)n1` [II-208] had an IC50 of 1 nM. The “HLM QH” value in data set [1] was 48%.
For `[2H]C([2H])([2H])N1C[C@H](F)C[C@H]1[C@H](C)Oc1cc(N2CCN(C)C3(CC3)C2)nc(-c2noc3c2CCC[C@@]32CCCc3sc(N)c(C#N)c32)n1` [II-209] the same measures were 4 nM and 40%.
